Experimental findings from patent US12063914B2, “DNA sequence that increases odorant receptor representation in the olfactory system” (Research Foundation of the City University of New York, priority 2015, dated 2024) are described below.

The target in the test is T1, M71 OR (Mus musculus, UniProt Q60893).
T1 construct: the increase of OSNs expressing the M71 OR results in the coalescence of labeled axons; expressed in transfected cells; host or cells: olfactory sensory neurons of living transgenic mice (4•M71Cα, 5•M71Cα), made by pronuclear injection of the M71 minigene
T1 sequence (Q60893 1-309): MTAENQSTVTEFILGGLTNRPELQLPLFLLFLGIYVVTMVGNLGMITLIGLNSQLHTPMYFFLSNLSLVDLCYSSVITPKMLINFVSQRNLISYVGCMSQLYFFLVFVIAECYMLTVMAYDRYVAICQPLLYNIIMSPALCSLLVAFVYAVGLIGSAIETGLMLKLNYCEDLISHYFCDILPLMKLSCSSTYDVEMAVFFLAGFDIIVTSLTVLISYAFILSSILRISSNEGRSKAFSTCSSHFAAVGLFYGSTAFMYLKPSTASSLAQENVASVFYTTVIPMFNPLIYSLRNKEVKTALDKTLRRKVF
The experiment in a line: In vivo synaptophluorin (SpH) imaging of odor-evoked glomerular activity in 4•M71Cα mice. Particulars: for efficacy [(dF/F)max]: 0.44 uM. The text has this: Because the M71 OR is dorsally expressed in the olfactory bulb, any cloned OR using the M71 transgenic backbone will coalesce its axons onto dorsally located glomeruli, which makes them accessible for optical imaging. Optical imaging was therefore used to functionally characterize transgenic M71 projections in the OB. To examine their functional properties odor-evoked activity was imaged from the OBs of mice expressing the genetically encoded activity reporter SpH in all mature OSNs. Simultaneously recordings were obtained from mice that are either hemizygous or homozygous for 4•M71Cα (gene-targeted M71-GFP is out crossed) and heterozygous for SpH and identify red M71 glomeruli. Seven different M71-selective ligands were used from ex vivo analysis of genetically defined M71 OSNs in gene-targeted mice: three of these ligands produced responses by SpH imaging: Acetophenone (ACP), 4-methyl acetophenone (4MACP) and 2,4-dimethyl acetophenone (24dMACP) when delivered at different odor dilutions varying between 0% and 15%. The maximum change in fluorescence [(dF/F)max] per odor concentration was calculated for each compound over a 14 s trial period having a pre-odor (3 s), odor (4 s) and post-odor (4 s) acquisition. dF/F values for all glomeruli were calculated with a standardized 50 μm window, which is fully contained in all imaged glomeruli of both hemi and homo 4•M71Cα animals. (FIG. 2A, FIG. 2B and FIG. 2C: Each data point represents the average (dF/F). of 4-16 glomeruli imaged). […] All imaged mice are heterozygous for omp-SpH.
Olfactometry: Odors (purchased form Sigma Aldrich) were delivered using a custom built olfactometer controlled by an Arduino board with custom shields operating Teflon solenoids (Neptune Research) and connected to two Mass Flow Controllers (Alicat Scientific, Inc) to dilute the clean air (N2, max flow is 2 Lpm) and to dilute the odorized air (max flow is 300 SCCM). Nitrogen (N2) was used as the vapor carrier to avoid oxidation. Odor concentrations are expressed a % dilutions of saturated vapor and as molar saturated vapor concentration (μM s.v.), calculated using published vapor pressures at 25° Celsius (US EPA, Estimation Programs Interface Suite, v 4.0. Flow diluted odors were delivered at 2 Lpm mixed prior to the delivery site with air odorized with varying dilutions of odorant taken from the saturated headspace of pre-cleaned amber vials with white polypropylene closures and septum (J. G. Finneran) containing 99% pure odorants. To avoid contamination of the olfactometer, odorized air was never passed through the Teflon valves. Instead, odors were mixed with N2 in T-shaped mixing chambers (Neptune Research) and delivered to the animal's nose using an arduino controlled vacuum system. […] Output of the olfactometer was calibrated using the tracer odor Pinene and a photoionization detector (PID; Aurora Scientific).
In vivo SpH Imaging: Mice were anesthetized using Ketamine (100 mg/kg)/Xylazin (5 mg/kg) and maintained with Isoflurane (2.5% in 02) and immobilized using a stereotactic head holding device (Narishige, Inc.). Optical signals for SpH and mCherry were recorded using an ANDOR Neo 5.5 sCMOS camera connected to a NIKON AZ100 epifluorescence microscope (NIS Elements) with a 4× objective (numerical aperture 0.4). Excitation wavelengths of 475 nm for SpH and 575 nm for mCherry and emission of 520 nm for SpH and 635 nm for mCherry were used to obtain images of the dorsolateral bulb through thinned skull overlaying the bulb of a freely breathing animal. Each imaging trial consisted of a pre-odor (3 s), odor (4 s) and post-odor (4 s) acquisition, with a total acquisition time per trial of 14 s (including 3 s of valve switch delay). Using serial code, the arduino controlling the olfactometer was integrated in the NIS Elements software, so that the entire image acquisition sequence and flow-diluted odor delivery is controlled by the microscope software. […]

Each structure is given as a SMILES string.

As for `CC(=O)c1ccc(C)cc1C` [24dMACP, 2,4-dimethyl acetophenone], the “glomerular activity (in vivo SpH imaging)” value (4•M71Cα animals, vapor phase, odor dilutions 0% to 15%) is “observed”. Further, the “average highest (dF/F)max” value (hemizygous 4•M71Cα animals, ACP at 1.77 uM, 4MACP at 0.69 uM, 24dMACP at 0.66 uM) is 4.15%. Under “hemizygous animals”, the “efficacy [(dF/F)max]” value is 2.92%. Besides, the “efficacy [average (dF/F)max]” value (hemizygous animals, delivered at the same concentration, ˜0.70 uM) came to 4.15%. In addition, the “highest efficacy [(dF/F)max]” value (homozygous 4•M71Cα animals, ACP at 2.66 uM, 4MACP at 0.69 uM, 24dMACP at 0.46 uM) was 4.92%. In addition, where the note is “homozygous animals”, the “average efficacy (of all concentrations and odors)” value is given as 4.92%; the “efficacy [(dF/F)max]” value came to 4.92%.
